Read-outs that look alike come from different tables or passages of the source.
Assays:
[1] = tested on: P-MAPK1/2; experiment: Immunoblot of P-MAPK1/2 (MAPK activation) in hippocampal neurons; assay type: cell-based, rat; conditions: 20 micromoles U0126
Description: Cells were lysed with RIPA buffer (30 mM Tris-Hcl pH=7.4, 0.15 mM NaCl, 1% Nonidet P-40, 0/1% SDS, 0.5% sodium deoxycholate, 1 mM EDTA, 1 mM DTT, 2 mM MgCl2, 0.5 mM PMSF) supplemented with phosphatase and protease inhibitor cocktails (Sigma, St. Louis, Mo.) and sonicated for 1 minute at 25% output power using the Sonicator/Ultrasonic Processor (Misonix, Inc., Farmingdale, N.Y.). Total protein was determined by BCA (Pierce, Rockford, Ill.) and proteins were resolved by SDS-PAGE. Transfer of separated proteins to Schlecher and Schuell nitrocellulose membranes was performed overnight using an electroblotting apparatus. Non-specific binding was blocked by incubating blots for 1 hour at 37° C. in TN-T buffer (0.01 M Tris-Hcl pH=7.4, 0.15 M NaCl, 0.05% Tween 20) containing 1% bovine serum albumin (BSA). After washing with TN-T buffer, the blots were incubated for 2 hours at room temperature with the appropriate antibodies diluted in TN-T buffer containing 0.1% BSA. After three washes with TN-T buffer, the blots were incubated with Protein A-Peroxidase for 1 hour at room temperature. […]
Culture of hippocampal neurons were infected with HSV-2 or ICP10deltaPK at 10 PFU/cell and analyzed for MAPK activation by immunoblotting with antibodies specific for the unphosphorylated (MAPK) and phosphorylated (activated) MAPK species (P-MAPK1/2). […]

[2] = tested on: primary hippocampal cultures; assay type: cell-based, rat
Description: Briefly, minced fetal hippocampi were incubated with 0.25% trypsin for 30 minutes at 36° C. followed by dissociation of neurons in MEM supplemented with 10% FBS, 10% horse serum, 2 mM glutamine, and 20 microgram/ml DNase II, using a sterile Pasteur pipette. Neurons were plated at approximately 750,000 cells per 35 mm dish on glass coverslips pre-coated with poly-L-lysine and incubated at 36° C., 10% CO2. At 24 hours, media was replaced with MEM supplemented with 10% horse serum and 2 mM glutamine, and the cultures were returned to a 36 degrees C., 10% CO2 incubator.
In situ analysis of apoptosis was performed using In Situ Cell Death Detection Kit (Roche Molecular Biochemicals, Indianapolis, Ind.) according to the manufacturer's instructions. Briefly, infected/treated or non-infected/non-treated cells were fixed with 4% paraformaldehyde (PFA) in PBS (pH=7.4) for 30 minutes at room temperature followed by permiabilization of cells in 0.1% Triton X-100 (in 0.1% sodium citrate) for 2 minutes on ice. DNA breaks were labeled by addition of terminal deoxynucleotidyl transferase (TdT) and nucleotide mixture (containing dUTP-fluorescein conjugated) and incubation for 60 minutes at 37° C. Coverslips were mounted in PBS/glycerol, and cells were analyzed by fluorescence microscopy. After extensive washes in PBS, cells were incubated for 30 minutes at 37° C. with an anti-fluorescein antibody conjugated with alkaline phosphatase (AP). Chromogenic reaction was carried out by adding AP substrate solution (NBT/BCIP in 0.1 M Tris-HCl pH=9.5, 0.05 M MCl2, 0.1M NaCl, and 1 mM levamisole) and incubation for 10 minutes at room temperature. Coverslips were mounted in PBS/glycerol and analyzed by light microscopy. Apoptotic cells (characterized by a dark precipitate) and non-apoptotic cells (diffuse, light staining) were counted in at least five randomly chose microscopic fields (containing at least 250 cells). The percentage of mock-infected neurons undergoing apoptosis (between 4 and 5%) was subtracted from each average.
Cells were infected with 10 PFU/cell of HSV-2 or ICP10deltaPK and apoptosis was determined by TUNEL at 16 and 24 hours p.i. A total of 200-300 cells were counted in five randomly chosen microscopic fields and the mean percentage of TUNEL-positive cells was determined.

[3] = tested on: HEK293 cells; experiment: TUNEL assay of apoptosis inducers in HEK293 cells; assay type: cell-based, human; conditions: 24 hours with 250 nM STS or 300 nM D-Mann, ±SEM, three experiments
Description: (§1) Vero (African green monkey kidney cells) were obtained from ATCC and grown in Minimum Essential Medium (MEM) with 10% fetal bovine serum (FBS) and antibiotics. HEK293 (human embryonic kidney) cells were grown in Dulbecco's Modified Eagle's Medium (DMEM) with 10% FBS, 1 mM sodium pyruvate, 0.1 mM non-essential amino acids, and antibiotics. The cell line JHLA1 was established from HEK293 cells by transfection with an ICP10 expression vector and clone selection with G418, and the cell line JHL15 was similarly constructed using a vector which expresses the transmembrane deleted mutant of ICP10, p139™, which is PK negative, as described (Smith et al. 1994, Virology, 200:598-612).
(§2) Apoptosis was induced in HEI293 and JHLA1 cells using staurosporine (STS; Calbiochem, San Diego, Calif.) and D-manritol (D-Mann; Sigma, St. Louis, Mo.). […]
(§3) In situ analysis of apoptosis was performed using In Situ Cell Death Detection Kit (Roche Molecular Biochemicals, Indianapolis, Ind.) according to the manufacturer's instructions. […] Coverslips were mounted in PBS/glycerol, and cells were analyzed by fluorescence microscopy. […] Coverslips were mounted in PBS/glycerol and analyzed by light microscopy. Apoptotic cells (characterized by a dark precipitate) and non-apoptotic cells (diffuse, light staining) were counted in at least five randomly chose microscopic fields (containing at least 250 cells). […]

[4] = tested on: JHLA1 cells; experiment: TUNEL assay of apoptosis inducers in JHLA1 cells (express ICP10); assay type: cell-based, human; conditions: JHLA1 cells (printed JHLA15); 24 hours with 250 nM STS or 300 nM D-Mann; ±SEM
Description: as §1, §2, §3

[5] = tested on: chromosomal DNA; experiment: DNA fragmentation assay (agarose gel DNA ladder); assay type: cell-based, human; conditions: 24 hours post-treatment
Description: (§4) Apoptosis was induced in HEI293 and JHLA1 cells using staurosporine (STS; Calbiochem, San Diego, Calif.) and D-manritol (D-Mann; Sigma, St. Louis, Mo.). Cells were plated in 6-well plates on glass coverslips or in flasks and allowed to grow for 24 hours at 37° C. in DMEM with 10% FBS, 1 mM sodium pyruvate, 0.1 mM non-essential amino acids, and antibiotics. At 24 hours after plating, media was removed by aspiration, and appropriate dilutions of apoptotic inducers (STS 250 nM, D-Mann 300 mM) were added to the cells for various times indicated in the text. All dilutions were made in cell growth media described above containing 1% FBS. At the indicated times after treatment, cells were processed for TUNEL or harvested for DNA extraction or Western blot assay.
HEK293, JHLA1 and JHL15 cells treated or not treated with apoptotic inducers were collected by gentle scraping at 24 hours post-treatment/infection. DNA was extracted using Puregene DNA Isolation Kit (Gentra Systems, Minneapolis, Minn.) according to the manufacturer's instructions. After spectrophotometrical quantitation, 5-10 micrograms of DNA per samples was separated on a 1.5% agarose gel stained with 0.1 microgram/ml ethidium bromide. Fragmented DNA was visualized by exposure to UV light and photographed using a Polaroid MP-4 land camera.
To determine whether ICP10PK blocks DNA fragmentation induced by STS and D-Mann, treated cells were analyzed using a DNA fragmentation assay which detects degradation of chromosomal DNA into oligonucleosomal fragments.

[6] = tested on: JHL15 cells; experiment: TUNEL assay of apoptosis inducers in JHL15 cells (express PK negative p139TM); assay type: cell-based, human; conditions: JHL15 cells (printed RHL15 for STS); 24 hours with 250 nM STS or 300 nM D-Mann; ±SEM
Description: as §1, §2, §3

[7] = tested on: PARP; experiment: Western blot of PARP cleavage; assay type: cell-based, human; conditions: STS-treated
Description: (§5) Cells were collected by gentle scraping and centrifuged at 2,500 rpm for 5 minutes at 4° C. The dry pellet was stored at −80° C. until use. Cells were lysed with RIPA buffer (30 mM Tris-Hcl pH=7.4, […], 1% Nonidet P-40, 0/1% SDS, 0.5% sodium deoxycholate, 1 mM EDTA, 1 mM DTT, 2 mM MgCl2, 0.5 mM PMSF) supplemented with phosphatase and protease inhibitor cocktails (Sigma, St. Louis, Mo.) and sonicated for 1 minute at 25% output power using the Sonicator/Ultrasonic Processor (Misonix, Inc., Farmingdale, N.Y.). Total protein was determined by BCA (Pierce, Rockford, Ill.) and proteins were resolved by SDS-PAGE. Transfer of separated proteins to Schlecher and Schuell nitrocellulose membranes was performed overnight using an electroblotting apparatus. Non-specific binding was blocked by incubating blots for 1 hour at 37° C. in TN-T buffer (0.01 M Tris-Hcl pH=7.4, 0.15 M NaCl, 0.05% Tween 20) containing 1% bovine serum albumin (BSA). […]
To determine whether ICP10PK blocks PARP cleavage by caspase-3, a hallmark of caspase-3 dependent apoptosis, Western blot analysis using PARP antibody was performed on STS-treated HEK293, JHL15, and JHLA1 cells. A 116 kDa band consistent with the uncleaved PARP was detected in mock- and STS-treated cells.

[8] = tested on: procaspase-3 (caspase-3p32); experiment: Western blot of inactive procaspase-3 (caspase-3p32), densitometric scanning; assay type: cell-based, human
Description: as §4
as §5, with “(BSA). After washing with TN-T buffer, the blots were incubated for 2 hours at room temperature with the appropriate antibodies diluted in TN-T buffer containing 0.1% BSA. After three washes with TN-T buffer, the blots were incubated with Protein A-Peroxidase for 1 hour at room temperature.” for “(BSA).”

[9] = tested on: caspase-3p20; experiment: Immunohistochemistry for activated caspase-3 cleavage product (caspase-3p20) in HEK293, JHL15, JHLA1 cells; assay type: cell-based, human; conditions: STS-treated, ±SEM
Excerpt: FIG. 3B is a graph depicting inhibition of caspase activation by ICP10PK. HEK93, JHL15, and JHLA1 cells treated with STS (as described in FIG. 3A) were stained with caspase3p20 antibody (specific for the activated caspase-3 which is the large fragment of the pro-enzyme), and cells in five randomly chosen microscopic fields were counted. Results are expressed as mean percentage of positive cells±SEM (*=p<0.01 vs. HEK294; +=p<0.01 vs. JHL15 by Student test).
Previous reports have shown that STS-induced cell death is a caspase-dependent process (Jacobson et al., 1996, J. Cell. Biol., 133:1041-1051). […] To determine whether ICP10PK inhibits cleavage of pro-caspase-3, a central determinant of many apoptotic processes, Western blot analysis was performed on cell lysates obtained from STS-treated cells. […] The densitometric units were equal to 0.7 for both STS-treated HEK293 and JHL15 cells and 1.0 and 1.1 for DMSO-treated HEK293 and JHL15 cells, respectively). The levels of caspase-3p32 were similar in STS-treated and untreated JHLA1 cells (FIG. 3A, lanes 5 and 6, respectively). In this case, the densitometric units were equal to 1.2 for both treatments.

For `N#CC(=C(/N)Sc1ccccc1N)/C(C#N)=C(\N)Sc1ccccc1N` [U0126], which “P-MAPK1/2 levels vs untreated HSV-2 infected cells” value [1] is on record?
The value was “significantly lower”.

And the “percentage of TUNEL-positive (apoptotic) cells” value ([2]; HSV-2 infected cultures, 10 micromoles U0126)?
The value was 20±1.6%.

And the “percentage of TUNEL-positive (apoptotic) cells” value ([2]; HSV-2 infected cultures, 20 micromoles U0126)?
The value was 39.3±2.8%.

With `O=c1cc(N2CCOCC2)oc2c(-c3ccccc3)cccc12` [LY294002] as the compound, how does the “percentage of TUNEL-positive cells” value ([2]; HSV-2 infected cultures, 100 micromolar LY294002) read?
The value was 24.8±2.3.

And the “percentage of TUNEL-positive cells” value ([2]; mock-infected cultures, 100 micromolar LY294002 (non-treated 5±3))?
Its value is 72±4.5.

What does the source list for `OC[C@@H](O)[C@@H](O)[C@H](O)[C@H](O)CO` [D-Mann, D-mannitol]?
percentage of apoptotic (TUNEL-positive) cells [3]: 79±7.4%; percentage of apoptotic (TUNEL-positive) cells [4]: 13±8%; DNA fragmentation (DNA ladder pattern) ([5]; HEK293 cells): exhibited a DNA ladder pattern characteristic of apoptosis; DNA fragmentation (DNA ladder pattern) ([5]; JHLA1 cells): did not exhibit DNA fragmentation; percentage of apoptotic (TUNEL-positive) cells [6]: 58±7%

Which “85 kDa PARP cleavage product” value ([7]; HEK293 cells) does the source give for `CN[C@@H]1C[C@H]2O[C@@](C)([C@@H]1OC)n1c3ccccc3c3c4c(c5c6ccccc6n2c5c31)C(=O)NC4` [STS, staurosporine] here?
Its value is “detected”.

And the “85 kDa PARP cleavage product” value ([7]; JHL15 cells)?
The value was “detected”.

What about the “levels of caspase-3p32” value ([8]; HEK293 cells, STS 250 nM (DMSO control 1.0)) of the same compound?
The value was 0.7 densitometric units.

What about the “levels of caspase-3p32” value ([8]; JHL15 cells, STS 250 nM (DMSO control 1.1)) of the same compound?
Its value is 0.7 densitometric units.

What about the “levels of caspase-3p32” value ([8]; JHLA1 cells, STS 250 nM (untreated 1.2)) of the same compound?
Its value is 1.2 densitometric units.

What about the “percentage of apoptotic (TUNEL-positive) cells” value (from here on “percentage of apoptotic”) [3] of the same compound?
Its value is 71±12.4%.

And the “percentage of apoptotic” value [4]?
The value was 5.8 ± 2.1%.

And the “DNA fragmentation (DNA ladder pattern)” value ([5]; HEK293 cells)?
The value was “exhibited a DNA ladder pattern characteristic of apoptosis”.

And the “DNA fragmentation (DNA ladder pattern)” value ([5]; JHLA1 cells)?
The value was “did not exhibit DNA fragmentation”.

What about the “mean percentage of cells positive for caspase-3p20” value (from here on “mean percentage of cells positive”) ([9]; HEK293 cells) of the same compound?
The value was 40.5±0.9%.

What about the “mean percentage of cells positive” value ([9]; JHL15 cells) of the same compound?
Its value is 36.4±7.6%.

What about the “mean percentage of cells positive” value ([9]; JHLA1 cells) of the same compound?
Its value is 9.3±0.1%.

And the “percentage of apoptotic” value [6]?
The value was 79±4.9%.
